Assay results taken from patent US11884734B2, “Anti-MET antibodies and methods of use thereof” (Celldex Therapeutics, Inc., priority 2015, dated 2024).
Each block holds one molecule with its values, some of them ahead of it.

Key:
MET [1] = target: T1, MET (Homo sapiens, UniProt P08581); assay: MET shedding ELISA (sMET-ECD release) in A549 cells; assay type: cell-based; parameters: cell lines expressing wild-type MET such as A549 cells; endogenous in cells; host or cells: A549; conditions: 24 hrs, 1 nM of antibody, FIG. 12A
[2] = system: MET, AKT and MAPK phosphorylation; assay: Akt and MAPK phosphorylation analysis by western blot in A549 cells; assay type: cell-based, human; conditions: HGF treatment
Description: Western blots were generated from total protein separated on a 10% SDS-PAGE gel. Resolved protein was transferred to nitrocellulose (Bio-Rad), blocked for 1 h with 5% skim milk at 25° C., and then incubated with the indicated antibody overnight at 4° C. The anti-pAkt antibody, anti-pMAPK antibody (Cell Signaling cat. No. 9271 and Cell Signaling cat. No. 4370, respectively), and anti-1234/1235 MET XP antibody (Cell Signaling cat. No. 3077) were used at a concentration of 1 μg/mL in 5% skim milk. Secondary mouse and rabbit antibodies (GE Healthcare) were used at a 1:5000 dilution for 1 h at 25° C. SuperSignal® West Picto Chemiluminescent HRP Substrate (Thermo Scientific cat. No. 34078) was used as directed.

U87MG tumor cells = assay: U87MG orthotopic mouse model (bioluminescence); assay type: in vivo; conditions: 25 mg/kg; compared with control chimeric IgG1 anti-KLH antibody
Description: The ability of the anti-MET antibodies to inhibit tumor growth in vivo is assessed as described in Sections 6.2.1.3, 6.2.1.4, and 6.2.1.5. […] Treatment was performed biweekly, every three to four days, for seven weeks.

MET [3] = target: T2, MET (Homo sapiens, UniProt P08581, DEL964-1010); assay: MET degradation in H596 cells (exon 14 deleted MET); assay type: cell-based; conditions: 1 nM HGF, 24 hrs
T2 construct: In a non-small-cell lung cancer cell line H596, a functional MET protein is expressed without the 47 amino acids encoded by exon 14; endogenous in cells; host or cells: H596 (NSCLC / adenosquamous carcinoma)
Description: (§1) MET exon 14 mutations have been reported in many cancers (The Cancer Genome Atlas Research Network, 2014, Nature, 511(7511):543-550; Frampton et al., 2015, Cancer Discov. 5(8):850-859). MET exon 14 mutations confer reduced HGF-induced receptor degradation. Deletion of exon 14 (Leu964-Asp1010) removes the Tyr1003 site necessary for Cbl binding leading to a substantial decrease HGF-induced receptor degradation as previously reported (Kong-Beltram et al., 2006, Cancer Res. 66(1):283-289). […] In a non-small-cell lung cancer cell line H596, a functional MET protein is expressed without the 47 amino acids encoded by exon 14 (Kong-Beltram et al., 2006, Cancer Res. 66(1):283-289).

MET [4] = target: T1, MET; assay: HGF-induced MET degradation in U87MG cells; assay type: cell-based; conditions: U87MG cells (wild-type MET)
Description: as §1

MET [5] = target: T1, MET; assay: MET ubiquitination in A549 cells (immunoprecipitation/immunoblot); assay type: cell-based; parameters: cell lines expressing wild-type MET such as A549 and U87MG cells; endogenous in cells; host or cells: A549; conditions: 1 nM, 15 min, FIG. 12B
Description: Whether the anti-MET antibodies promote MET ubiquitination and degradation was investigated next. […] Cell lysates were precipitated with anti-ubiquitin antibody conjugated agarose (Santa Cruz) followed by immunoblotting with anti-MET antibody (Cell Signaling Technology). […] Thus, these antibodies promote receptor degradation utilizing the ubiquitination mechanism instead of protease-mediated shedding. This is in contrast with membrane protease-mediated receptor shedding observed previously with antibodies such as DN30 (Schleter, 2010, J. Biol. Chem. 285(34):26335-26340).

MET [6] = target: T1, MET; assay: HGF-induced MET degradation in A549 cells; assay type: cell-based; parameters: cell lines expressing wild-type MET such as A549 and U87MG cells; endogenous in cells; host or cells: A549; conditions: A549 cells (wild-type MET)
Description: as §1

Molecule: CCCCCCCCCCCCCC(=O)O[C@@H]1[C@@H](C)[C@@]2(O)[C@@H](C=C(CO)C[C@]3(O)C(=O)C(C)=C[C@@H]23)[C@@H]2C(C)(C)[C@]12OC(C)=O [PMA, phorbol 12-myristate 13-acetate]
MET shedding (release of sMET-ECD into culture medium) (MET [1]): induced substantial MET shedding

Molecule: C[C@@H](Oc1cc(-c2cnn(C3CCNCC3)c2)cnc1N)c1c(Cl)ccc(F)c1Cl [crizotinib]
MET protein levels, western blot [2]: not observed
activation of MET (phosphorylated MET), western blot [2]: inhibited activation of MET
activation of downstream signaling components Akt and MAPK (phosphorylation), western blot [2]: reduces the activation of downstream signaling components Akt and MAPK
tumor growth (bioluminescence) (U87MG tumor cells): resulted in similar tumor growth

receptor degradation (MET [3]): 30%
receptor degradation (MET [4]): approximately 80%
MET receptor ubiquitination (MET [5]): induced potent receptor ubiquitination
receptor degradation (MET [6]): approximately 80%
Molecule: HGF: MET ligand used to stimulate cells
